# Assay results published in patent US20240192195A1, “A MULTIOMIC APPROACH TO MODELING OF GENE REGULATORY NETWORKS IN MULTIPLE MYELOMA” (H. LEE MOFFITT CANCER CENTER AND RESEARCH INSTITUTE, INC., priority 2021, published 2024).
# Test system: multiple myeloma
# Test: Clinical response to Selinexor-based regimens after anti-CD38 monoclonal antibody in the immediate prior line (STOMP, XPORT-MM-028)
# Format: in vivo, human
# Details: Selinexor-based regimen
structure (smiles),measurement,setting,value
O=C(/C=C\n1cnc(-c2cc(C(F)(F)F)cc(C(F)(F)F)c2)n1)NNc1cnccn1 [Selinexor],"PFS, anti-CD38 mAb in immediate prior line versus not",STOMP and XPORT-MM-028 trials,statistically significant improvement
same,"VGPR rate, anti-CD38 mAb in immediate prior line versus not",STOMP trial (xpd and xkd arms),higher
same,"ORR and CBR, anti-CD38 mAb in immediate prior line versus not",XPORT-MM-028 trial (xvd),considerably higher
